Holding throughout (assay type): cell-based
For assay [1], the target named is T1, ER (Homo sapiens, UniProt P03372).
T1 construct: endogenous in cells; probably T47D or MCF-7
T1 sequence (P03372 1-595): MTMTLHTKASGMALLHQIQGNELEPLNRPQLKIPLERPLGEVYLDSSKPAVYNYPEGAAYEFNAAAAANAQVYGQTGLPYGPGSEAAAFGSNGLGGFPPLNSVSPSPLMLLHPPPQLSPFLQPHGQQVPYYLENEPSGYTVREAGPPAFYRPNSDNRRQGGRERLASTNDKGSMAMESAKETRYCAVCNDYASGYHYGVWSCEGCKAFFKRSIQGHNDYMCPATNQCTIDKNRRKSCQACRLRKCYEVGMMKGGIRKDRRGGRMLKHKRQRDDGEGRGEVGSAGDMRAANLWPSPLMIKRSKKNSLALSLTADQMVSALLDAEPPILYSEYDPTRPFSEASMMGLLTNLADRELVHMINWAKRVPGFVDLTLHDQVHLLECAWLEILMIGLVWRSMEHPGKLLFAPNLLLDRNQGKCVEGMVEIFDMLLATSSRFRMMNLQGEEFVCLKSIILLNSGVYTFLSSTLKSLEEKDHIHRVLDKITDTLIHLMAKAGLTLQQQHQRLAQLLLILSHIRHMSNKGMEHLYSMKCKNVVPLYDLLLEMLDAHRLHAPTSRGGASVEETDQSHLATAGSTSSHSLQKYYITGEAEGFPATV
The experiment in a line: In-cell western blot analysis, relative ER percentage (compounds B1-B126). The following applies: ER degradation, 16 hours, read-out: ICW DC50. In outline: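 Cells seeded at 40,000 or 10,000 per well overnight were treated with compound (final 0.5% DMSO) for 16 hours, then fixed with formaldehyde. ER was detected with primary antibodies and anti-rabbit-680/anti-mouse-800 secondaries on a CLX reader. Signal is expressed relative to untreated and DMSO wells set as 100%.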

Assay [2] addresses T1, ER. The experiment in a line: Western blot analysis (compounds B1-B126). As to conditions: ER degradation, read-out: Traditional Western Degradation potency (DC50). The method, then:
Western Blot Analysis. The cells that are treated with the compounds are lysed in Radioimmunoprecipitation Assay Protein Lysis and Extraction Buffer (e.g., 25 mmol/L Tris.HCl, pH 7.6, 150 mmol/L NaCl, 1% Nonidet P-40, 1% sodium deoxycholate, and 0.1% sodium dodecyl sulfate) containing proteinase inhibitor cocktail. Equal amounts of total protein are electrophoresed through 10% SDS-polyacrylamide gels after determination of protein concentration by BCA assay. The separated protein bands are transferred onto PVDF membranes and blotted against different antibodies. The blots are scanned, and the band intensities are quantified (e.g., by using GelQuant.NET software provided by biochemlabsolutions.com). The relative mean intensity of target proteins is expressed after normalization to the intensity of glyceraldehyde-3-phosphate dehydrogenase bands.
Western Blot Analysis. Western blot analysis was performed essentially as described previously. The cells treated with indicated compounds were lysed in Radioimmunoprecipitation Assay Protein Lysis and Extraction Buffer (25 mmol/L Tris.HCl, pH 7.6, 150 mmol/L NaCl, 1% Nonidet P-40, 1% sodium deoxycholate, and 0.1% sodium dodecyl sulfate) containing proteinase inhibitor cocktail (Roche Diagnostics, Mannheim, Germany). Equal amounts of total protein were electrophoresed through 10% SDS-polyacrylamide gels after determination of protein concentration by BCA assay (Fisher Scientific, Pittsburgh, PA). The separated protein bands were transferred onto PVDF membranes (GE Healthcare Life Sciences, Marlborough, MA) and blotted against different antibodies, as indicated. The blots were scanned, and the band intensities were quantified using GelQuant.NET software provided by biochemlabsolutions.com. The relative mean intensity of target proteins was expressed after normalization to the intensity of glyceraldehyde-3-phosphate dehydrogenase bands.

Assay [3] in a line: Cell growth assay, WST-8 (compounds B1-B126). As to conditions: 96 h; T47D cell line, WST-8, 4 days; read-out: Cell growth inhibition in T47D cell line IC50. In outline:
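Cells seeded at 1500/well overnight, treated one day later with compound doses for 4 days, then 10% WST-8 added for 2.5 h at 37° C in CO2. Absorbance at 450 nm, expressed relative to vehicle control over three independent repeats.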

These results are taken from patent US20260256925A1, “INDAZOLE DERIVATIVES AS ESTROGEN RECEPTOR DEGRADERS” (REGENTS OF THE UNIVERSITY OF MICHIGAN, priority 2022, published 2026).

“6-((1R,4s)-4-(4-(4-((6S,8R)-7-(2,2- difluoroethyl)-8-methyl-6,7,8,9- tetrahydro-3H-pyrazolo[4,3- f]isoquinolin-6-yl)-3,5- difluorophenyl)piperidine-1- carbonyl)cyclohexyl)-2-(2,6- dioxopiperidin-3-yl)-6,7- dihydropyrrolo[3,4-f]isoindole- 1,3(2H,5H)-dione [Compound B9]”: the DC50 in assay [1] and in assay [2] was below 10 nM in each case.

For `C[C@@H]1Cc2c(ccc3[nH]ncc23)[C@@H](c2c(F)cc(N3CCC(CN4CCN5c6ccc7c(c6OCC5C4)CN(C4CCC(=O)NC4=O)C7=O)CC3)cc2F)N1CC(F)F` (mixture of isomers) [Compound B104, 3-((RS)-7-((1-(4-((6S,8R)-7-(2,2-difluoroethyl)-8-methyl-6,7,8,9-tetrahydro-3H-pyrazolo[4,3-f]isoquinolin-6-yl)-3,5-difluorophenyl)piperidin-4-yl)methyl)-1-oxo-1,3,5,5a,6,7,8,9-octahydro-2H-pyrazino[1′,2′:4,5][1,4]oxazino[2,3-e]isoindol-2-yl)piperidine-2,6-dione], the DC50 in assay [1] and in assay [2] was 10 to 100 nM in each case.

For the compound `C[C@@H]1Cc2c(ccc3[nH]ncc23)[C@@H](c2c(F)cc(N3CCC(CN4CCN5c6cc7c(cc6OC[C@@H]5C4)C(=O)N(C4CCC(=O)NC4=O)C7)CC3)cc2F)N1CC(F)F` (stereo partly drawn) [Compound B16], the DC50 in assay [2] was 10 to 100 nM. Further, in assay [3], the IC50 was below 1 nM.

Turning to `C[C@@H]1Cc2c(ccc3[nH]ncc23)[C@@H](c2c(F)cc(NC3CN(C(=O)[C@H]4CC[C@H](N5Cc6cc7c(cc6C5)C(=O)N(C5CCC(=O)NC5=O)C7=O)CC4)C3)cc2F)N1CC(F)F` (stereo partly drawn) [Compound B24, 6-((1S,4r)-4-(3-((4-((6S,8R)-7-(2,2-difluoroethyl)-8-methyl-6,7,8,9-tetrahydro-3H-pyrazolo[4,3-f]isoquinolin-6-yl)-3,5-difluorophenyl)amino)azetidine-1-carbonyl)cyclohexyl)-2-(2,6-dioxopiperidin-3-yl)-6,7-dihydropyrrolo[3,4-f]isoindole-1,3(2H,5H)-dione], the DC50 in assay [2] is 10 to 100 nM. In addition, in assay [3], the IC50 was in the range of 1 to 10 nM.

For `C[C@@H]1Cc2c(ccc3[nH]ncc23)[C@@H](c2c(F)cc(NC3CN(C(=O)[C@H]4CC[C@@H](N5Cc6cc7c(cc6C5)C(=O)N(C5CCC(=O)NC5=O)C7=O)CC4)C3)cc2F)N1CC(F)F` (stereo partly drawn) [Compound B25, 6-((1R,4s)-4-(3-((4-((6S,8R)-7-(2,2-difluoroethyl)-8-methyl-6,7,8,9-tetrahydro-3H-pyrazolo[4,3-f]isoquinolin-6-yl)-3,5-difluorophenyl)amino)azetidine-1-carbonyl)cyclohexyl)-2-(2,6-dioxopiperidin-3-yl)-6,7-dihydropyrrolo[3,4-f]isoindole-1,3(2H,5H)-dione], the DC50 in assay [2] was below 10 nM. Besides, the IC50 in assay [3] was in the range of 1 to 10 nM.

Turning to `C[C@@H]1Cc2c(ccc3[nH]ncc23)[C@@H](c2c(F)cc(N3CCC(CN4CCN(c5ccc6c(c5)C(=O)N(C5CCC(=O)NC5=O)C6=O)CC4)CC3)cc2F)N1CC(F)F` (stereo partly drawn) [Compound B65, 5-(4-((1-(4-((6S,8R)-7-(2,2-difluoroethyl)-8-methyl-6,7,8,9-tetrahydro-3H-pyrazolo[4,3-f]isoquinolin-6-yl)-3,5-difluorophenyl)piperidin-4-yl)methyl)piperazin-1-yl)-2-(2,6-dioxopiperidin-3-yl)isoindoline-1,3-dione], the DC50 in assay [2] lay within 10 to 100 nM.

For the compound `C[C@@H]1Cc2c(ccc3[nH]ncc23)[C@@H](c2c(F)cc(N3CCC(CN4CCN(c5cc6c(cc5F)C(=O)N(C5CCC(=O)NC5=O)C6=O)CC4)CC3)cc2F)N1CC(F)F` (stereo partly drawn) [Compound B66, 5-(4-((1-(4-((6S,8R)-7-(2,2-difluoroethyl)-8-methyl-6,7,8,9-tetrahydro-3H-pyrazolo[4,3-f]isoquinolin-6-yl)-3,5-difluorophenyl)piperidin-4-yl)mcthyl)pipcrazin-1-yl)-2-(2,6-dioxopiperidin-3-yl)-6-fluoroisoindoline-1,3-dione], in assay [2], the DC50 was 10 to 100 nM.

With `C[C@@H]1Cc2c(ccc3[nH]ncc23)[C@@H](c2c(F)cc(N3CCC(CN4CCN(c5ccc6c(c5)CN(C5CCC(=O)NC5=O)C6=O)CC4)CC3)cc2F)N1CC(F)F` (stereo partly drawn) [Compound B67, 3-(5-(4-((1-(4-((6S,8R)-7-(2,2-difluoroethyl)-8-methyl-6,7,8,9-tetrahydro-3H-pyrazolo[4,3-f]isoquinolin-6-yl)-3,5-difluorophenyl)piperidin-4-yl)methyl)piperazin-1-yl)-1-oxoisoindolin-2-yl)piperidine-2,6-dione], the DC50 in assay [1] and in assay [2] was below 10 nM in each case. The IC50 in assay [3] is below 1 nM.

In the case of `C[C@@H]1Cc2c(ccc3[nH]ncc23)[C@@H](c2c(F)cc(N3CCC(CN4CCC(N5Cc6cc7c(cc6C5)C(=O)N(C5CCC(=O)NC5=O)C7=O)CC4)CC3)cc2F)N1CC(F)F` (stereo partly drawn) [Compound B70, 6-(1-((1-(4-((6S,8R)-7-(2,2-difluoroethyl)-8-methyl-6,7,8,9-tetrahydro-3H-pyrazolo[4,3-f]isoquinolin-6-yl)-3,5-difluorophenyl)piperidin-4-yl)methyl)piperidin-4-yl)-2-(2,6-dioxopiperidin-3-yl)-6,7-dihydropyrrolo[3,4-f]isoindole-1,3(2H,5H)-dione], the DC50 in assay [2] lay in the range of 10 to 100 nM.

With `C[C@@H]1Cc2c(ccc3[nH]ncc23)[C@@H](c2c(F)cc(N3CCC(CN4CCC(N5Cc6cc7c(cc6C5)C(=O)N(C5CCC(=O)NC5=O)C7)CC4)CC3)cc2F)N1CC(F)F` (stereo partly drawn) [Compound B71, 3-(6-(1-((1-(4-((6S,8R)-7-(2,2-difluoroethyl)-8-methyl-6,7,8,9-tetrahydro-3H-pyrazolo[4,3-f]isoquinolin-6-yl)-3,5-difluorophenyl)piperidin-4-yl)methyl)piperidin-4-yl)-1-oxo-3,5,6,7-tetrahydropyrrolo[3,4-f]isoindol-2(1H)-yl)piperidine-2,6-dione], in assay [2], the DC50 is 10 to 100 nM.

As to `C[C@@H]1Cc2c(ccc3[nH]ncc23)[C@@H](c2c(F)cc(N3CCC(C(=O)N4C5CCC4CC(N4Cc6cc7c(cc6C4)C(=O)N(C4CCC(=O)NC4=O)C7=O)C5)CC3)cc2F)N1CC(F)F` (stereo partly drawn) [Compound B103, 6-(8-(1-(4-((6S,8R)-7-(2,2-difluoroethyl)-8-methyl-6,7,8,9-tetrahydro-3H-pyrazolo[4,3-f]isoquinolin-6-yl)-3,5-difluorophenyl)piperidine-4-carbonyl)-8-azabicyclo [3.2.1]octan-3-yl)-2-(2,6-dioxopiperidin-3-yl)-6,7-dihydropyrrolo [3,4-f]isoindole-1,3(2H,5H)-dione], the DC50 in assay [2] was above 100 nM.

In the case of `C[C@@H]1Cc2c(ccc3[nH]ncc23)[C@@H](c2c(F)cc(N3CCC(CN4CCN5c6ccc7c(c6OC[C@@H]5C4)CN(C4CCC(=O)NC4=O)C7=O)CC3)cc2F)N1CC(F)F` (stereo partly drawn) [Compound B105, 3-((S)-7-((1-(4-((6S,8R)-7-(2,2-difluoroethyl)-8-methyl-6,7,8,9-tetrahydro-3H-pyrazolo[4,3-f]isoquinolin-6-yl)-3,5-difluorophenyl)piperidin-4-yl)methyl)-1-oxo-1,3,5,5a,6,7,8,9-octahydro-2H-pyrazino[1′,2′:4,5][1,4]oxazino[2,3-e]isoindol-2-yl)piperidine-2,6-dione], the DC50 in assay [2] is above 100 nM.

In the case of `C[C@@H]1Cc2c(ccc3[nH]ncc23)[C@@H](c2ccc(N3CCC4(CC3)CN(C(=O)CN3Cc5cc6c(cc5C3)C(=O)N(C3CCC(=O)NC3=O)C6=O)CCO4)cn2)N1CC(F)(F)F` (stereo partly drawn) [Compound B111], the DC50 in assay [2] fell in the range of 10 to 100 nM. Moreover, the IC50 in assay [3] was 1 to 10 nM.
